Test results as given in patent publication US8735406B2, “8-oxodihydropurine derivative” (Dainippon Sumitomo Pharma Co., Ltd., priority 2009, dated 2014).
Structures can show the parent of a compound that is named as a salt.

Target: T1, FAAH (Rattus norvegicus, UniProt P97612)
T1 construct: Preparation of Rat Brain Membranes Preparations (FAAH Enzyme Solution); from tissue; host or cells: rat cerebrum (brain membrane preparation)
T1 sequence (P97612 1-579): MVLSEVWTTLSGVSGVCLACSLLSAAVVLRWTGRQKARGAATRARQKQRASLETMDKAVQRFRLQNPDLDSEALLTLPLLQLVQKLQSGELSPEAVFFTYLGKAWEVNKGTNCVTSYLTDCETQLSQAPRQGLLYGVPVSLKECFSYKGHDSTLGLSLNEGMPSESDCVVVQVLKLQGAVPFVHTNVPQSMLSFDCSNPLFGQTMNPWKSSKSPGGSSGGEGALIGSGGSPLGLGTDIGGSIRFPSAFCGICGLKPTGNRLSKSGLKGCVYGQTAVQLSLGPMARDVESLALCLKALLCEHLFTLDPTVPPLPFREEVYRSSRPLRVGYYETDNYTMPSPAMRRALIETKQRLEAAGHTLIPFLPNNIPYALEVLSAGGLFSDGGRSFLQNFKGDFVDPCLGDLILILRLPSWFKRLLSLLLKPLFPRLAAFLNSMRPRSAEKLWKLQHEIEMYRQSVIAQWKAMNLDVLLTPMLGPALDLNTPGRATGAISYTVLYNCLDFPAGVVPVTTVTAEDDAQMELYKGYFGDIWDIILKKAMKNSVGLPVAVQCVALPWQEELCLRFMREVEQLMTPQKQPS
Assay: Determination of FAAH inhibitory activity in rat (rat brain membrane preparations, [3H]-anandamide hydrolysis)
Type: biochemical
Conditions: rat brain membrane preparations; for inhibition at 0.1 µM: 100 nM test substance, read-out: FAAH Inhibition, Inhibition Rate at 100 nM; for IC50: test substance 0.1 nM to 1 μM, read-out: FAAH Inhibition IC50
In short: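 Rat cerebrum membranes (100 μg/mL protein) preincubated 10 min at 37 °C with compound (1% DMSO) in pH 7.6 Tris buffer with 1.5% BSA. Substrate 2 nM [3H]-anandamide plus 2 μM anandamide added for 10 min at 37 °C. [3H]-ethanolamine in the aqueous phase after chloroform/methanol extraction was scintillation counted; IC50 over 0.1 nM–1 μM.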

Row | inhibition at 0.1 µM | IC50 | SMILES
1 | 83% | 21 nM | CN(C)C(=O)n1c(=O)n(C)c2cnc(-c3ccc(C(F)(F)F)cc3F)nc21 [Example 338, 2-[2-Fluoro-4-(trifluoromethyl)phenyl]-N,N,7-trimethyl-8-oxo-7,8-dihydro-9H-purine-9-carboxamide]
2 | 80% | 7 nM | CN(C)C(=O)n1c(=O)n(C)c2cnc(-c3ccc(C(F)(F)F)cc3Cl)nc21 [Example 339, 2-[2-Chloro-4-(trifluoromethyl)phenyl]-N,N,7-trimethyl-8-oxo-7,8-dihydro-9H-purine-9-carboxamide]
3 | 72% | 95 nM | COc1ccc(-c2ncc3c(n2)n(C(=O)N2CCC2)c(=O)n3C)cc1 [Example 356, 9-(Azetidin-1-ylcarbonyl)-2-(4-methoxyphenyl)-7-methyl-7,9-dihydro-8H-purine-8-one]
4 | 94% | 24 nM | COc1cccc(Cc2ncc3c(n2)n(C)c(=O)n3C(=O)N2CCC2)c1 [Example 375, 7-(Azetidin-1-ylcarbonyl)-2-(3-methoxybenzyl)-9-methyl-7,9-dihydro-8H-purine-8-one]
5 | 96% | 13 nM | Cn1c(=O)n(C(=O)N2CCC2)c2cnc(Cc3cccc(C(F)(F)F)c3)nc21 [Example 379, 7-(Azetidin-1-ylcarbonyl)-9-methyl-2-[3-(trifluoromethyl)benzyl]-7,9-dihydro-8H-purine-8-one]
6 | 100% | 8 nM | COCCCc1ncc2c(n1)n(C)c(=O)n2C(=O)N1CC(c2ccc(C(F)(F)F)cc2)C1 [Example 380, 2-(3-methoxypropyl)-9-methyl-7-({3-[4-(trifluoromethyl)phenyl]azetidin-1-yl}carbonyl)-7,9-dihydro-8H-purine-8-one]
7 | 84% | 8 nM | COCCCc1ncc2c(n1)n(C)c(=O)n2C(=O)N1CC(c2ccc(F)cc2)C1 [Example 381]
8 | 80% | 5 nM | COCCCc1ncc2c(n1)n(C)c(=O)n2C(=O)N1CC(c2cccc(F)c2)C1 [Example 382]
9 | 65% | 14 nM | COCCCc1ncc2c(n1)n(C)c(=O)n2C(=O)N1CC(c2ccccc2)C1 [Example 383]
10 | 8% | > 100 nM | COCCCc1ncc2c(n1)n(C)c(=O)n2C(=O)N1CC(Oc2ccccc2)C1 [Example 384]
11 | 99% | 5 nM | CCOc1ccc(C2CN(C(=O)n3c(=O)n(C)c4nc(CCCOC)ncc43)C2)cc1 [Example 385]
12 | 93% | 7 nM | COCCCc1ncc2c(n1)n(C)c(=O)n2C(=O)N1CC(c2cccc(C(F)(F)F)c2)C1 [Example 386]
13 | 92% | 22 nM | CCOc1cccc(C2CN(C(=O)n3c(=O)n(C)c4nc(CCCOC)ncc43)C2)c1 [Example 387]
14 | 100% | 5 nM | COCCc1ncc2c(n1)n(C)c(=O)n2C(=O)N1CC(c2ccc(C(F)(F)F)cc2)C1 [Example 388, 2-(2-methoxyethyl)-9-methyl-7-({3-[4-(trifluoromethyl)phenyl]azetidin-1-yl}carbonyl)-7,9-dihydro-8H-purine-8-one hydrochloric acid salt]
15 | 94% | 7 nM | CN(C)C(=O)n1c(=O)n(C)c2cnc(CCCOc3ccc(C(F)(F)F)cc3)nc21 [Example 394, N,N,7-trimethyl-8-oxo-2-{3-[4-(trifluoromethyl)phenoxy]propyl}-7,8-dihydro-9H-purine-9-carboxamide hydrochloric acid salt]
16 | 78% | 32 nM | CN(C)C(=O)n1c(=O)n(C)c2cnc(CCCOc3cccc(F)c3)nc21 [Example 395]
17 | 52% | 78 nM | Cc1ccc(OCCCc2ncc3c(n2)n(C(=O)N(C)C)c(=O)n3C)cc1 [Example 396]
18 | 76% | 32 nM | Cc1cccc(OCCCc2ncc3c(n2)n(C(=O)N(C)C)c(=O)n3C)c1 [Example 397]
19 | 84% | 9 nM | CN(C)C(=O)n1c(=O)n(C)c2cnc(CCCOc3ccc(F)cc3)nc21 [Example 398]
20 | 95% | 6 nM | CN(C)C(=O)n1c(=O)n(C)c2cnc(CCCOc3cccc(C(F)(F)F)c3)nc21 [Example 399]
21 | 88% | 98 nM | Cn1c(=O)n(C(=O)N2CCC2)c2nc(CCCOc3ccccc3)ncc21 [Example 400]
22 | 99% | 9 nM | Cn1c(=O)n(C(=O)N2CCC2)c2nc(CCCOc3ccc(F)cc3)ncc21 [Example 401, 9-(Azetidin-1-ylcarbonyl)-2-[3-(4-fluorophenoxy)propyl]-7-methyl-7,9-dihydro-8H-purine-8-one]
23 | 103% | 10 nM | Cn1c(=O)n(C(=O)N2CCC2)c2cnc(COc3ccc(F)cc3)nc21 [Example 402, 7-(azetidin-1-ylcarbonyl)-2-[(4-fluorophenoxy)methyl]-9-methyl-7,9-dihydro-8H-purine-8-one]
24 | 96% | 10 nM | COc1cccc(OCc2ncc3c(n2)n(C)c(=O)n3C(=O)N2CCC2)c1 [Example 404, 7-(Azetidin-1-ylcarbonyl)-2-[(3-methoxyphenoxy)methyl]-9-methyl-7,9-dihydro-8H-purine-8-one]

Row | inhibition at 0.1 µM | IC50 | SMILES
25 | 98% | 3 nM | CCc1cccc(OCc2ncc3c(n2)n(C(=O)N(C)C)c(=O)n3C)c1 [Example 413]
26 | 84% | 64 nM | CN(C)C(=O)n1c(=O)n(C)c2cnc(COc3cccc(Cl)c3)nc21 [Example 414]
27 | 41% | 148 nM | Cn1c(=O)n(C(=O)N2CCC2)c2nc(COc3ccccc3)ncc21 [Example 415]
28 | 50% | 112 nM | Cc1ccccc1OCc1ncc2c(n1)n(C(=O)N1CCC1)c(=O)n2C [Example 416]
29 | 66% | 33 nM | Cc1cccc(OCc2ncc3c(n2)n(C(=O)N2CCC2)c(=O)n3C)c1 [Example 417]
30 | 75% | 35 nM | CCc1cccc(OCc2ncc3c(n2)n(C(=O)N2CCC2)c(=O)n3C)c1 [Example 418]
31 | 81% | 31 nM | Cn1c(=O)n(C(=O)N2CCC2)c2nc(COc3cccc(Cl)c3)ncc21 [Example 419]
32 | 60% | 65 nM | Cn1c(=O)n(C(=O)N2CCC2)c2nc(COc3cccc(F)c3)ncc21 [Example 420]
33 | 85% | 95 nM | CN(C)C(=O)n1c(=O)n(C)c2cnc(COc3ccccc3Cl)nc21 [Example 421]
34 | 88% | 22 nM | CN(C)C(=O)n1c(=O)n(C)c2cnc(COc3cccc(C(F)(F)F)c3)nc21 [Example 422]
35 | 112% | 3 nM | CN(C)C(=O)n1c(=O)n(C)c2cnc(COc3cccc(OC(F)(F)F)c3)nc21 [Example 423]
36 | 80% | 26 nM | Cc1ccc(OCc2ncc3c(n2)n(C(=O)N2CCC2)c(=O)n3C)cc1 [Example 424]
37 | 79% | 12 nM | Cn1c(=O)n(C(=O)N2CCC2)c2nc(COc3ccccc3F)ncc21 [Example 425]
38 | 84% | 9 nM | Cn1c(=O)n(C(=O)N2CCC2)c2nc(COc3ccc(F)cc3)ncc21 [Example 426]
39 | 92% | 19 nM | Cn1c(=O)n(C(=O)N2CCC2)c2nc(COc3ccccc3Cl)ncc21 [Example 427]
40 | 123% | 10 nM | Cn1c(=O)n(C(=O)N2CCC2)c2nc(COc3ccc(Cl)cc3)ncc21 [Example 428]
41 | 84% | 23 nM | CN(C)C(=O)n1c(=O)n(C)c2cnc(COc3ccccc3C(F)(F)F)nc21 [Example 429]
42 | 80% | 24 nM | CN(C)C(=O)n1c(=O)n(C)c2cnc(COc3ccccc3OC(F)(F)F)nc21 [Example 430]
43 | 60% | 94 nM | CN(C)C(=O)n1c(=O)n(C)c2cnc(COc3cccc(OC(F)F)c3)nc21 [Example 431]
44 | 95% | 8 nM | Cn1c(=O)n(C(=O)N2CCC2)c2nc(COc3ccc(C(F)(F)F)cc3)ncc21 [Example 434]
45 | 94% | 12 nM | Cn1c(=O)n(C(=O)N2CCC2)c2nc(COc3ccccc3OC(F)(F)F)ncc21 [Example 435]
46 | 96% | 11 nM | Cn1c(=O)n(C(=O)N2CCC2)c2cnc(COc3cccc(OC(F)F)c3)nc21 [Example 437]
47 | 86% | 34 nM | COCc1ncc2c(n1)n(C)c(=O)n2C(=O)N1CC(c2ccccc2)C1 [Example 438, 2-(methoxymethyl)-9-methyl-7-[(3-phenylazetidin-1-yl)carbonyl]-7,9-dihydro-8H-purine-8-one]
